# US9895346B2, “Applications of substituent benzyloxy group containing ether compounds for preparing antitumor drugs” (Sinochem Corporation, priority 2013, dated 2018)
# Assays:
# Format in all cases: cell-based, human
# [1] = tested on: prostate cancer cell line LNCap; assay: In vitro cell inhibition assay (crystal violet), prostate cancer LNCap
# Description: (§1) In vitro Cell inhibition assay is as follows:
# (§2) The human cancer cell lines used for this assay were bladder cancer J82, T24, prostate cancer LNCap, PC-3, lung cancer A549, H157, H460, H520, colon cancer HCT8, HCT116, RkO, and leukemia HL-60, etc.
# (§3) In vitro cell culture technology was selected for the determination of inhibition rate bladder cancer cell lines J82 and T24, prostate cancer cell lines LNCap and PC-3, lung cancer cell lines A549, H157, H460 and H520. 1000 to 3000 cells were inoculated to 24-well plate, followed by addition of 1 mL culture medium well known to researchers in this field to each well, the cells were cultured in 5% incubator for 24 hours at 37° C., then the different concentration compounds and controls were added to each well. It should be noted that the added volume is not more than 0.5% of total volume. After completion of addition, the cells continued being cultured in incubator for one week, the culture medium was removed and washed by cold PBS of 1 mL once, and then fixed for 10 minutes at room temperature with 1% formalin, followed by wash with PBS of 1 mL. After fixation, stain was carried out with 0.1% crystal violet for 30 minutes. 0.1% crystal violet was recycled. The stained cells were washed gently with deionized water, dried at room temperature and kepted. The inhibition rate was calculated according to the foiling equation. The controls are Selumetinib (AZD6244), Gefitinib, Cisplatin. Inhibition rate=number of left cells each treatment/number of left cells of untreated control×100%
# [2] = tested on: prostate cancer cell line PC-3; assay: In vitro cell inhibition assay (crystal violet), prostate cancer PC-3
# Description: as §1, §2, §3
# [3] = tested on: bladder cancer cell line T24; assay: In vitro cell inhibition assay (crystal violet), bladder cancer T24
# Description: as §1, §2, §3
# [4] = tested on: bladder cancer cell line J82; assay: In vitro cell inhibition assay (crystal violet), bladder cancer J82
# Description: as §1, §2, §3
# [5] = tested on: lung cancer cell line H520; assay: In vitro cell inhibition assay (crystal violet), lung cancer H520
# Description: as §1, §2, §3
# [6] = tested on: lung cancer cell line H460; assay: In vitro cell inhibition assay (crystal violet), lung cancer H460
# Description: as §1, §2, §3
# [7] = tested on: colon cancer HCT116; assay: In vitro cell inhibition assay, colon cancer HCT116
# Description: as §1, §2
# [8] = tested on: colon cancer RkO; assay: In vitro cell inhibition assay, colon cancer RkO
# Description: as §1, §2
# [9] = tested on: colon cancer HCT8; assay: In vitro cell inhibition assay, colon cancer HCT8
# Description: as §1, §2
# [10] = tested on: lung cancer cell line A549; assay: In vitro cell inhibition assay (crystal violet), lung cancer A549
# Description: as §1, §2, §3
smiles,measurement,setting,value
CO/C=C(/C(=O)OC)c1ccccc1Oc1cc(Oc2ccccc2C#N)ncn1 [Azoxystrobin],Inhibition rate on human cancer cells,[1]; 5.0 μM,0%
same,Inhibition rate on human cancer cells,"[2]; PC-3, 5.0 μM",0%
same,Inhibition rate on human cancer cells,"[3]; T24, 5.0 μM",0%
same,Inhibition rate on human cancer cells,"[4]; J82, 5.0 μM",0%
"N.N.[Cl][Pt][Cl] [Cisplatin, reference compound]",Inhibition rate on human cancer cells,"[5]; H520, 0.25 μM",0%
same,Inhibition rate on human cancer cells,"[5]; H520, 0.5 μM",5%
same,Inhibition rate on human cancer cells,"[5]; H520, 1.0 μM",20%
same,Inhibition rate on human cancer cells,"[5]; H520, 2.5 μM",30%
same,Inhibition rate on human cancer cells,"[5]; H520, 5.0 μM",50%
same,Inhibition rate on human cancer cells,"[6]; H460, 0.25 μM",0%
same,Inhibition rate on human cancer cells,"[6]; H460, 0.5 μM",0%
same,Inhibition rate on human cancer cells,"[6]; H460, 1.0 μM",5%
same,Inhibition rate on human cancer cells,"[6]; H460, 2.5 μM",30%
same,Inhibition rate on human cancer cells,"[6]; H460, 5.0 μM",90%
same,Inhibition rate on human cancer cells,"[7]; HCT 116, 0.25 μM",0%
same,Inhibition rate on human cancer cells,"[7]; HCT 116, 0.5 μM",0%
same,Inhibition rate on human cancer cells,"[7]; HCT 116, 1.0 μM",5%
same,Inhibition rate on human cancer cells,"[7]; HCT 116, 2.5 μM",20%
same,Inhibition rate on human cancer cells,"[7]; HCT 116, 5.0 μM",50%
same,Inhibition rate on human cancer cells,[8]; 0.25 μM,0%
same,Inhibition rate on human cancer cells,[8]; 0.5 μM,5%
same,Inhibition rate on human cancer cells,[8]; 1.0 μM,10%
same,Inhibition rate on human cancer cells,[8]; 2.5 μM,50%
same,Inhibition rate on human cancer cells,[8]; 5.0 μM,70%
same,Inhibition rate on human cancer cells,"[9]; HCT 8, 0.25 μM",5%
same,Inhibition rate on human cancer cells,"[9]; HCT 8, 0.5 μM",10%
same,Inhibition rate on human cancer cells,"[9]; HCT 8, 1.0 μM",50%
same,Inhibition rate on human cancer cells,"[9]; HCT 8, 2.5 μM",70%
same,Inhibition rate on human cancer cells,"[9]; HCT 8, 5.0 μM",90%
same,Inhibition rate on human cancer cells,"[3]; T24, 0.25 μM",0%
same,Inhibition rate on human cancer cells,"[3]; T24, 0.5 μM",0%
same,Inhibition rate on human cancer cells,"[3]; T24, 1.0 μM",0%
same,Inhibition rate on human cancer cells,"[3]; T24, 2.5 μM",5%
same,Inhibition rate on human cancer cells,"[3]; T24, 5.0 μM",20%
same,Inhibition rate on human cancer cells,"[10]; A549, 0.25 μM",0%
same,Inhibition rate on human cancer cells,"[10]; A549, 0.5 μM",0%
same,Inhibition rate on human cancer cells,"[10]; A549, 1.0 μM",5%
same,Inhibition rate on human cancer cells,"[10]; A549, 2.5 μM",30%
same,Inhibition rate on human cancer cells,"[10]; A549, 5.0 μM",80%
same,Inhibition rate on human cancer cells,"[4]; J82, 0.25 μM",0%
same,Inhibition rate on human cancer cells,"[4]; J82, 0.5 μM",0%
same,Inhibition rate on human cancer cells,"[4]; J82, 1.0 μM",0%
same,Inhibition rate on human cancer cells,"[4]; J82, 2.5 μM",5%
same,Inhibition rate on human cancer cells,"[4]; J82, 5.0 μM",20%
COC=C(C(=O)OC)c1ccccc1COc1ccc2c3c(c(=O)oc2c1C)CCCC3 [Compound 28-129],Inhibition rate on human cancer cells,"[5]; H520, 0.25 μM",85%
same,Inhibition rate on human cancer cells,"[5]; H520, 0.5 μM",95%
same,Inhibition rate on human cancer cells,"[5]; H520, 1.0 μM",100%
same,Inhibition rate on human cancer cells,"[5]; H520, 2.5 μM",100%
same,Inhibition rate on human cancer cells,"[5]; H520, 5.0 μM",100%
same,Inhibition rate on human cancer cells,"[6]; H460, 0.5 μM",70%
same,Inhibition rate on human cancer cells,"[6]; H460, 1.0 μM",95%
same,Inhibition rate on human cancer cells,"[6]; H460, 2.5 μM",100%
same,Inhibition rate on human cancer cells,"[6]; H460, 5.0 μM",100%
same,Inhibition rate on human cancer cells,"[7]; HCT 116, 0.25 μM",90%
same,Inhibition rate on human cancer cells,"[7]; HCT 116, 0.5 μM",95%
same,Inhibition rate on human cancer cells,"[7]; HCT 116, 1.0 μM",100%
same,Inhibition rate on human cancer cells,"[7]; HCT 116, 2.5 μM",100%
same,Inhibition rate on human cancer cells,"[7]; HCT 116, 5.0 μM",100%
same,Inhibition rate on human cancer cells,[8]; 0.25 μM,85%
same,Inhibition rate on human cancer cells,[8]; 0.5 μM,99%
same,Inhibition rate on human cancer cells,[8]; 1.0 μM,100%
same,Inhibition rate on human cancer cells,[8]; 2.5 μM,100%
same,Inhibition rate on human cancer cells,[8]; 5.0 μM,100%
same,Inhibition rate on human cancer cells,"[9]; HCT 8, 0.25 μM",80%
same,Inhibition rate on human cancer cells,"[9]; HCT 8, 0.5 μM",95%
same,Inhibition rate on human cancer cells,"[9]; HCT 8, 1.0 μM",100%
same,Inhibition rate on human cancer cells,"[9]; HCT 8, 2.5 μM",100%
same,Inhibition rate on human cancer cells,"[9]; HCT 8, 5.0 μM",100%
same,Inhibition rate on human cancer cells,"[10]; A549, 0.25 μM",90%
same,Inhibition rate on human cancer cells,"[10]; A549, 0.5 μM",95%
same,Inhibition rate on human cancer cells,"[10]; A549, 1.0 μM",100%
same,Inhibition rate on human cancer cells,"[10]; A549, 2.5 μM",100%
same,Inhibition rate on human cancer cells,"[10]; A549, 5.0 μM",100%
"CO/C=C(/C(=O)OC)c1ccccc1COc1cc(C(F)(F)F)nc(Nc2ccc(Cl)cc2Cl)n1 [compound A, reference compound]",inhibition at 0.5 µM,"[1]; Homo sapiens, 0.5 μM, read-out: Inhibition rate on human cancer cells",0%
same,inhibition at 1 µM,"[1]; Homo sapiens, 1.0 μM, read-out: Inhibition rate on human cancer cells",100%
same,inhibition at 2.5 µM,"[1]; Homo sapiens, 2.5 μM, read-out: Inhibition rate on human cancer cells",100%
same,inhibition at 5 µM,"[1]; Homo sapiens, 5.0 μM, read-out: Inhibition rate on human cancer cells",100%
same,inhibition at 0.5 µM,"[2]; Homo sapiens, PC-3, 0.5 μM, read-out: Inhibition rate on human cancer cells",0%
same,inhibition at 1 µM,"[2]; Homo sapiens, PC-3, 1.0 μM, read-out: Inhibition rate on human cancer cells",85%
same,inhibition at 2.5 µM,"[2]; Homo sapiens, PC-3, 2.5 μM, read-out: Inhibition rate on human cancer cells",100%
same,inhibition at 5 µM,"[2]; Homo sapiens, PC-3, 5.0 μM, read-out: Inhibition rate on human cancer cells",100%
same,inhibition at 0.5 µM,"[3]; Homo sapiens, T24, 0.5 μM, read-out: Inhibition rate on human cancer cells",0%
same,inhibition at 1 µM,"[3]; Homo sapiens, T24, 1.0 μM, read-out: Inhibition rate on human cancer cells",100%
same,inhibition at 2.5 µM,"[3]; Homo sapiens, T24, 2.5 μM, read-out: Inhibition rate on human cancer cells",100%
same,inhibition at 5 µM,"[3]; Homo sapiens, T24, 5.0 μM, read-out: Inhibition rate on human cancer cells",100%
same,inhibition at 0.25 µM,"[4]; Homo sapiens, J82, 0.25 μM, read-out: Inhibition rate on human cancer cells",0%
same,inhibition at 0.5 µM,"[4]; Homo sapiens, J82, 0.5 μM, read-out: Inhibition rate on human cancer cells",50%
same,inhibition at 1 µM,"[4]; Homo sapiens, J82, 1.0 μM, read-out: Inhibition rate on human cancer cells",95%
same,inhibition at 2.5 µM,"[4]; Homo sapiens, J82, 2.5 μM, read-out: Inhibition rate on human cancer cells",100%
same,inhibition at 5 µM,"[4]; Homo sapiens, J82, 5.0 μM, read-out: Inhibition rate on human cancer cells",100%
CO/C=C(/C(=O)OC)c1ccccc1COc1cc(-c2ccc(Cl)cc2)nn1C [pyraoxystrobin],Inhibition rate on human cancer cells,[1]; 0.25 μM,100%
same,Inhibition rate on human cancer cells,[1]; 0.5 μM,100%
same,Inhibition rate on human cancer cells,[1]; 1.0 μM,100%
same,Inhibition rate on human cancer cells,[1]; 2.5 μM,100%
same,Inhibition rate on human cancer cells,[1]; 5.0 μM,100%
same,Inhibition rate on human cancer cells,"[2]; PC-3, 0.25 μM",100%
same,Inhibition rate on human cancer cells,"[2]; PC-3, 0.5 μM",100%
same,Inhibition rate on human cancer cells,"[2]; PC-3, 1.0 μM",100%
same,Inhibition rate on human cancer cells,"[2]; PC-3, 2.5 μM",100%
same,Inhibition rate on human cancer cells,"[2]; PC-3, 5.0 μM",100%
same,Inhibition rate on human cancer cells,"[3]; T24, 0.25 μM",100%
same,Inhibition rate on human cancer cells,"[3]; T24, 0.5 μM",100%
same,Inhibition rate on human cancer cells,"[3]; T24, 1.0 μM",100%
same,Inhibition rate on human cancer cells,"[3]; T24, 2.5 μM",100%
same,Inhibition rate on human cancer cells,"[3]; T24, 5.0 μM",100%
same,Inhibition rate on human cancer cells,"[4]; J82, 0.25 μM",70%
same,Inhibition rate on human cancer cells,"[4]; J82, 0.5 μM",100%
same,Inhibition rate on human cancer cells,"[4]; J82, 1.0 μM",100%
same,Inhibition rate on human cancer cells,"[4]; J82, 2.5 μM",100%
same,Inhibition rate on human cancer cells,"[4]; J82, 5.0 μM",100%
